Common to all, as to format: biochemical
Experiment [1] addresses constitutive proteasome β5c unit (Homo sapiens, UniProt P20618+P28074). As to the kind of experiment: Caliper-based proteasome enzymatic activity assay, β5c. Particulars: human recombinant constitutive proteasome 0.3 nM, FAM-peptide substrate 1 μM, 3 h at rt; read-out: β5c subunit IC50. An outline of the steps: (§1)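 Recombinant human immunoproteasome or constitutive proteasome (0.3 nM) with 1 μM FAM-peptide in 20 mM Hepes pH 7.4, 0.015% SDS, 0.01% BSA; LMP7/β5c ran 3 h at rt and were stopped with 5 uM carfilzomib, LMP2 ran 2 h and was stopped with 6.7 uM ixazomib. Cleaved product quantified by microfluidic separation; IC50 from percent inhibition.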

Experiment [2] deals with immunoproteasome LMP7/B5i subunit (Homo sapiens, UniProt P20618+P28062). As to the kind of experiment: Caliper-based proteasome enzymatic activity assay, LMP7. The following applies: human recombinant immunoproteasome 0.3 nM, FAM-peptide substrate 1 μM, 3 h at rt. A digest of the protocol: as §1
Experiment [3] has as its target immunoproteasome LPM2/β1i subunit (Homo sapiens, UniProt P28065+P40306). As to the kind of experiment: Caliper-based proteasome enzymatic activity assay, LMP2. Particulars: human recombinant immunoproteasome 0.3 nM, FAM-peptide substrate 1 μM, 2 h at rt. The protocol:
A Caliper-based proteasome assay (Caliper Life Sciences, Hopkinton, Mass.) was used to measure inhibition of the immunoproteasome LMP7/B5i subunit, the immunoproteasome LPM2/β1i subunit, and the constitutive proteasome β5c unit for a compound of Formula (I). For LMP7 and β5c, serial dilutions of test compounds were incubated with either human recombinant immunoprotcasome or constitutive proteasome (0.3 nM enzyme) and a carboxyfluorescein (FAM)-labeled peptide substrate FAM-TYETFKSIMKKSPF-NH2 (1 μM) at it for 3 h. The reaction was then terminated with a buffer containing the known proteasome inhibitor carfilzomib at a concentration of 5 uM. For LMP2, serial dilutions of test compounds were incubated with human recombinant immunoproteasome proteasome (0.3 nM enzyme) and a carboxyfluorescein (FAM)-labeled peptide substrate FAM-[…]-NH2 (1 μM) at rt for 2 h. The reaction was then terminated with a buffer containing the known proteasome inhibitor ixazomib at a concentration of 6.7 uM. The reaction buffer was 20 mM Hepes pH 7.4, 0.01% bovine serum albumin, 0.015% SDS, 0.5 mM EDTA, 1%0/DMSO. The peptide cleavage reaction product was quantified on a Caliper LabChip 3000. Percent inhibition was calculated for each compound dilution and the concentration that produced 50% inhibition was calculated. This value is presented as the IC50.

The IC50 is the point on the concentration scale where inhibition reaches its midpoint.

Each structure is given as a SMILES string.

As to `CC(C)(C)/C=C(\C#N)C(=O)N1C[C@H](F)C[C@@H]1COC(=O)N[C@@H](Cc1ccccc1)B(O)O` [Example 90, ((R)-1-(((((2R,4R)-1-((E)-2-cyano-4,4-dimethylpent-2-enoyl)-4-fluoropyrrolidin-2-yl)methoxy)carbonyl)amino)-2-phenylethyl)boronic acid], the IC50 stood at 1.96 µM in experiment [1], 0.001 µM in experiment [2] and 4.5 µM in experiment [3].

In the case of `CC(C)(C)C=C(C#N)C(=O)N1CCCC[C@@H]1COC(=O)N[C@@H](Cc1coc2ccccc12)B(O)O` [Example 25, ((R)-2-(benzofuran-3-yl)-1-(((((R)-1-(2-cyano-4,4-dimethylpent-2-enoyl)piperidin-2-yl)methoxy)carbonyl)amino)ethyl)boronic acid], the 50% inhibitory concentration (IC50) in experiment [1] was 0.172 µM; in experiment [2] it was 0.0006 µM; in experiment [3], greater than 5 µM.

`C=CC(=O)N1CCC[C@@H]1COC(=O)N[C@@H](Cc1ccccc1)B(O)O` [Example 14, ((R)-1-(((((R)-1-acryloylpyrrolidin-2-yl)methoxy)carbonyl)amino)-2-phenylethyl)boronic acid]: the IC50 in experiment [1] was 4.85 µM; in experiment [2], 0.123 µM; in experiment [3], greater than 5 µM.

In the case of `CC(C)C=C(C#N)C(=O)N1CCC[C@@H]1COC(=O)N[C@@H](Cc1coc2ccccc12)B(O)O` [Example 16, ((R)-2-(benzofuran-3-yl)-1-(((((R)-1-(2-cyano-4-methylpent-2-enoyl)pyrrolidin-2-yl)methoxy)carbonyl)amino)ethyl)boronic acid], the IC50 is 0.444 µM in experiment [1], 0.0025 µM in experiment [2] and greater than 5 µM in experiment [3].

In the case of `CC(C)(C=C(C#N)C(=O)N1CCCC[C@@H]1COC(=O)N[C@@H](Cc1ccccc1)B(O)O)N1CCC(F)(F)C1` [Example 28, ((R)-1-(((((R)-1-(2-cyano-4-(3,3-difluoropyrrolidin-1-yl)-4-methylpent-2-enoyl)piperidin-2-yl)methoxy)carbonyl)amino)-2-phenylethyl)boronic acid], the figures for the 50% inhibitory concentration (IC50) in experiment [1], in experiment [2] and in experiment [3] were 2.19 µM, 0.0015 µM and greater than 5 µM, respectively.

Take `CC(C)(C)/C=C(\C#N)C(=O)N1C[C@@H](F)C[C@@H]1COC(=O)N[C@@H](Cc1ccccc1)B(O)O` [Example 102, ((R)-1-(((((2R,4S)-1-((E)-2-cyano-4,4-dimethylpent-2-enoyl)-4-fluoropyrrolidin-2-yl)methoxy)carbonyl)amino)-2-phenylethyl)boronic acid]: the IC50 worked out at 1.13 µM in experiment [1], 0.0007 µM in experiment [2] and 4.49 µM in experiment [3].

On to `CC(C)(C=C(C#N)C(=O)N1C[C@@H]2C[C@@H]2[C@@H]1COC(=O)N[C@@H](Cc1ccccc1)B(O)O)N1CCOCC1` [Example 67, ((R)-1-(((((1S,2R,5R)-3-(2-cyano-4-methyl-4-morpholinopent-2-enoyl)-3-azabicyclo[3.1.0]hexan-2-yl)methoxy)carbonyl)amino)-2-phenylethyl)boronic acid], for which the results for the IC50 in experiment [1], in experiment [2] and in experiment [3] were 2.31 µM, 0.001 µM and greater than 5 µM, respectively.

Regarding `CC(C)(C=C(C#N)C(=O)N1CCCC[C@@H]1COC(=O)N[C@@H](Cc1ccccc1)B(O)O)N1CCCCC1` [Example 30, ((R)-1-(((((R)-1-(2-cyano-4-methyl-4-(piperidin-1-yl)pent-2-enoyl)piperidin-2-yl)methoxy)carbonyl)amino)-2-phenylethyl)boronic acid], the values for the IC50 in experiment [1], in experiment [2] and in experiment [3] were greater than 5 µM, 0.016 µM and greater than 5 µM, respectively.

With `CC(C)(C=C(C#N)C(=O)N1CCC[C@]1(C)COC(=O)N[C@@H](Cc1ccccc1)B(O)O)N1CCC(F)(F)C1` [Example 85, ((R)-1-(((((R)-1-(2-cyano-4-(3,3-difluoropyrrolidin-1-yl)-4-methylpent-2-enoyl)-2-methylpyrrolidin-2-yl)methoxy)carbonyl)amino)-2-phenylethyl)boronic acid], the IC50 was 4.89 µM in experiment [1], 0.002 µM in experiment [2] and greater than 5 µM in experiment [3].

Regarding `Cc1ccc(C[C@H](NC(=O)OC[C@H]2CCCCN2C(=O)C(C#N)=CC(C)(C)C)B(O)O)cc1` [Example 24, ((R)-1-(((((R)-1-(2-cyano-4,4-dimethylpent-2-enoyl)piperidin-2-yl)methoxy)carbonyl)amino)-2-(p-tolyl)ethyl)boronic acid], the IC50 in experiment [1] is 1.39 µM; in experiment [2], 0.0037 µM; in experiment [3] it was greater than 5 µM.

Regarding `CC1(C=C(C#N)C(=O)N2CCCC[C@@H]2COC(=O)N[C@@H](Cc2coc3ccccc23)B(O)O)CCOCC1` [Example 59, ((R)-2-(benzofuran-3-yl)-1-(((((R)-1-(2-cyano-3-(4-methyltetrahydro-2H-pyran-4-yl)acryloyl)piperidin-2-yl)methoxy)carbonyl)amino)ethyl)boronic acid], the IC50 in experiment [1] was 0.372 µM; in experiment [2], 0.0028 µM; in experiment [3] it was greater than 5 µM.

`CC(C)(C=C(C#N)C(=O)N1CCCC[C@@H]1COC(=O)N[C@@H](Cc1ccccc1)B(O)O)N1CCOCC1` [Example 29, ((R)-1-(((((R)-1-(2-cyano-4-methyl-4-morpholinopent-2-enoyl)piperidin-2-yl)methoxy)carbonyl)amino)-2-phenylethyl)boronic acid]: the values for the IC50 in experiment [1], in experiment [2] and in experiment [3] were 3.4 µM, 0.0029 µM and greater than 5 µM, respectively.

Regarding `CC(C)(C=C(C#N)C(=O)N1CCC[C@@H]1COC(=O)N[C@@H](Cc1ccccc1)B(O)O)N1CCCCC1` [Example 20, ((R)-1-(((((R)-1-(2-cyano-4-methyl-4-(piperidin-1l-yl)pent-2-enoyl)pyrrolidin-2-yl)methoxy)carbonyl)amino)-2-phenylethyl)boronic acid], the 50% inhibitory concentration (IC50) in experiment [1] was 4.54 µM; in experiment [2], 0.0036 µM; in experiment [3], greater than 5 µM.

Regarding `C=CC(=O)N1CCCC[C@@H]1COC(=O)N[C@@H](Cc1ccccc1)B(O)O` [Example 8, ((R)-1-(((((R)-1-acryloylpiperidin-2-yl)methoxy)carbonyl)amino)-2-phenylethyl)boronic acid], the concentration for half-maximal inhibition (IC50) in experiment [1], in experiment [2] and in experiment [3] was greater than 5 µM each time.

Take `CC(C)(C)C=C(C#N)C(=O)N1C[C@H]2C[C@H]2[C@@H]1COC(=O)N[C@@H](Cc1ccccc1)B(O)O` [Example 37, ((R)-1-(((((1R,2R,5S)-3-(2-cyano-4,4-dimethylpent-2-enoyl)-3-azabicyclo[3.1.0]hexan-2-yl)methoxy)carbonyl)amino)-2-phenylethyl)boronic acid]: the IC50 was 1.96 µM in experiment [1], 0.004 µM in experiment [2] and greater than 5 µM in experiment [3].

As to `CC(C)(C)C=C(C#N)C(=O)N1C[C@@H]2C[C@@H]2[C@@H]1COC(=O)N[C@@H](Cc1ccccc1)B(O)O` [Example 26], the figures for the half-maximal inhibitory concentration (IC50) in experiment [1], in experiment [2] and in experiment [3] were 2.11 µM, 0.0012 µM and greater than 5 µM, respectively.

Consider `CC(C)(C)/C=C(\C#N)C(=O)N1CCCC[C@H]1COC(=O)N[C@@H](Cc1ccccc1)B(O)O` [Example 9, ((R)-1-(((((S)-1-((E)-2-cyano-4,4-dimethylpent-2-enoyl)piperidin-2-yl)methoxy)carbonyl)amino)-2-phenylethyl)boronic acid], for which the IC50 is greater than 5 µM in experiment [1], 0.014 µM in experiment [2] and 3.65 µM in experiment [3].

(Values after US11154563B2, “Immunoproteasome inhibitors” (Principia Biopharma Inc., priority 2017, dated 2021).)
